Laboratory results published in patent US20080146540A1, “Methods of diagnosis and treatment for asthma, allergic rhinitis and other respiratory diseases based on haplotype association” (priority 2003, published 2008).

Key:
MMP-9 = assay: Phase II clinical study CEP-1347-201: MMP-9 change from baseline; format: in vivo, human; conditions: for MMP-9 Change from Baseline at Week 8, LS Mean: ANCOVA
Excerpt: Matrix metalloproteinases (MMPs) are members of a family of proteolytic enzymes that degrade the extracellular matrix and […] tissue inhibitors (TIMPs). Up regulation of MMP-9 results in subepithelial collagen deposition and airway remodeling leading to irreversible airways obstruction in asthma patients. Airway remodeling has and continues to be a research goal of anti-asthma therapies. […] The change in the […] reached statistical significance and the comparison of the pooled CEP-1347 groups versus placebo approached statistical significance (p=0.06).

IL-8 = assay: Phase II clinical study CEP-1347-201: sputum IL-8; format: in vivo, human; conditions: samples not collected in a systematic manner
asthma patients [1] = assay: Phase II clinical study CEP-1347-201: peak expiratory flow rate (PEFR; ANCOVA at week 8 and longitudinal model of daily PEFR); format: in vivo, human; conditions: p=0.15; dose-response shape very similar to morning PEFR
MLK1 = MLK1 (Homo sapiens, UniProt P80192); conditions: MLK active site; cited from earlier work
[2] = system: exhaled nitric oxide (eNO); assay: Phase II clinical study CEP-1347-201: exhaled nitric oxide (eNO) change from baseline; format: in vivo, human; conditions: for eNO Change from Baseline at Week 8, LS Mean: ANCOVA
Excerpt: eNO has been used as a biomarker for measuring airways inflammation. eNO correlates with eosinophilic inflammation in asthmatic patients and is increased in patients with untreated asthma and decreased with corticosteroid treatment.

IL-1β = conditions: standard in vitro pharmacological testing procedures (WO 97/49406); cited from earlier work
IL-6 = assay: Phase II clinical study CEP-1347-201: sputum IL-6; format: in vivo, human; conditions: samples not collected in a systematic manner
asthma patients [3] = assay: Phase II clinical study CEP-1347-201: peak expiratory flow rate (PEFR; ANCOVA at week 8 and longitudinal model of daily PEFR); format: in vivo, human; conditions: for PEFR Change from Baseline at Week 8, LS Mean: ANCOVA; for Mean model predicted PEFR adjusted for baseline percent predicted PEFR, mean: morning PEFR
Excerpt: Two analyses of PEFR were pre-specified in the SAP, an ANCOVA analysis of the change from baseline at week 8 and a model based longitudinal analysis of the daily PEFR measurements. Results from an ANCOVA (analysis of covariance) including treatment group as a factor and the baseline value as a covariate are presented in Table 19. The ANCOVA results reported in Table 19 were limited to change from baseline at week 8 PEFR measurements from office based spirometry assessments. Patients were also instructed to perform peak flow rate assessments at home, once in the morning and once in the evening using a hand-held peak flow device. PEFR measures were then recorded by the patient into a diary. A total of 6878 morning (5 am-12 noon) observations were collected from 149 patients during the treatment phase of the study (56 days in duration) corresponding to approximately 46.2 observations per subject. […] The endpoint used in this analysis was change from baseline in morning PEFR. While the model based analysis can be difficult to understand, this approach takes advantage of the rich daily PEFR data set (6878 observations) whereas the ANCOVA was limited to the week 8 PEFR (146 observations). The model included a placebo and treatment component. […] This common phenomenon is typically referred to as “regression to the mean”. In addition, the onset of this placebo effect appeared to occur over time. Therefore, a rate constant was added to the model to account for the change in placebo effect over time. […] Placeboss=θ(1)+η(1)+θ(9)*baseline % predicted PEFR (Eq. 3) Placebot=Placeboss*(1-exp(-θ(5)*DAY)) (Eq. 4) […] To allow for a less than immediate CEP-1347 effect, a rate constant controlling the onset of treatment effect was also included in the treatment model. In addition, it was assumed that the ability of a patient to responds to drug treatment was proportional to the patients baseline % predicted PEFR. In other words, patients with normal lung function at baseline would be expected to have little effect whereas those with poor lung function at baseline would be expected to have a larger effect. This model component is similar to a treatment by baseline interaction in an ANCOVA analysis. Equation describes the treatment time course model: […]=θ(n)*ROOM*(1-(-exp(-θ(10)*DAY)) (Eq. 5) Where, […] the treatment effect at time t adjusted for the patient's baseline % predicted PEFR and duration of drug therapy, θ(n) is the fixed effect associated with n treatment group; either 10, 25, or 50 mgBID treatment groups, ROOM scales the magnitude of the treatment effect based on the baseline % predicted PEFR (i.e., 1-baseline predicted; baseline by treatment interaction), θ(10) is the rate constant governing the onset of treatment effect. The overall effect at time t combines the placebo component and the drug component (Equation 6): […]=Placebot+Treatment1+ε(1) (Eq. 6) […] Model selection was done in the same manner as described for the MCT analysis. In addition, a randomization test was undertaken to more accurately determine the p value comparing the full model (run #14 included a treatment component) to the reduced model (run #5; placebo model only). […] The 5th and 95th percentiles for the predicted values were identified from the pool of predicted values to establish a 90% prediction interval around the mean model prediction (Table 21).

TNFα = conditions: lipopolysaccharide challenge; cited from earlier work

MLK1, sequence (P80192 whole entry): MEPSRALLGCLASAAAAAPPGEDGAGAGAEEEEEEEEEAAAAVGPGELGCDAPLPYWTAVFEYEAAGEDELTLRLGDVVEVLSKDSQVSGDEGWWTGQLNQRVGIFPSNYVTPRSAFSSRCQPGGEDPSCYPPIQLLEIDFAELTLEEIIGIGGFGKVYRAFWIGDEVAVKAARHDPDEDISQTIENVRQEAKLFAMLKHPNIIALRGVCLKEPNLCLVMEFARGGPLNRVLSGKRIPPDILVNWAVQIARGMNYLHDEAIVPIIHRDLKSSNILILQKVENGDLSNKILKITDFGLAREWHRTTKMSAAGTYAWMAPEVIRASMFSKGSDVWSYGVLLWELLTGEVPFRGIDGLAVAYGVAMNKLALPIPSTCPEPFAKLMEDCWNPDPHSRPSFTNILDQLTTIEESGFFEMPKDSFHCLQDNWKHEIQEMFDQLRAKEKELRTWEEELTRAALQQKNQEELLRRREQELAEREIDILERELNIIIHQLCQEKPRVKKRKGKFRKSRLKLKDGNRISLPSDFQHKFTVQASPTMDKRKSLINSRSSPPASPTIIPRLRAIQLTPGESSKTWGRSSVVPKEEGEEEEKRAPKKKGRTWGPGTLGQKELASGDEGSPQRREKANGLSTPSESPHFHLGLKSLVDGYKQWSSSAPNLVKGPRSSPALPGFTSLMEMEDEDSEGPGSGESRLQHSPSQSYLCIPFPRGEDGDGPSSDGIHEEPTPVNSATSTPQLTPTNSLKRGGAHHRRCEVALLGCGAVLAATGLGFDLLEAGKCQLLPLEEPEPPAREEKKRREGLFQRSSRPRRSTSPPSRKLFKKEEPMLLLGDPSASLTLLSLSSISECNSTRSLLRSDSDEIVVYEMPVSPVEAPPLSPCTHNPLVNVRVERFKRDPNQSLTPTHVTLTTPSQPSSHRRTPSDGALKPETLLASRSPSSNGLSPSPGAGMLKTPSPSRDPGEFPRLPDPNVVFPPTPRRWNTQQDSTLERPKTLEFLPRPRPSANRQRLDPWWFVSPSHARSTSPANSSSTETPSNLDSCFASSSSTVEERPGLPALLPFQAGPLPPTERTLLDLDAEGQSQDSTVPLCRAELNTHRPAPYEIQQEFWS

## CCSCc1ccc2c(c1)c1c3c(c4c5cc(CSCC)ccc5n5c4c1n2C1CC(O)(C(=O)OC)C5(C)O1)CNC3=O (stereo not shown) [CEP-1347]
MMP-9; 10 mg BID, 4 Weeks
  MMP 9 Change from baseline, Mean: -89.2 pg/mL
  MMP 9 Change from baseline, Median: -79.4 pg/mL
  MMP 9 Observed Values, Mean: 723.4 pg/mL
  MMP 9 Observed Values, Median: 636.5 pg/mL
MMP-9; 10 mg BID, 8 Weeks
  MMP 9 Change from baseline, Mean: -108.5 pg/mL
  MMP 9 Change from baseline, Median: -87.6 pg/mL
  MMP 9 Observed Values, Mean: 687.4 pg/mL
  MMP 9 Observed Values, Median: 596.2 pg/mL
MMP-9; 10 mg BID, p 0.23
  MMP-9 Change from Baseline at Week 8, LS Mean: −98.4
MMP-9; 25 mg BID group relative to placebo, p=0.04
  MMP-9 change from baseline at week 8 (ANCOVA): statistically significant reduction
MMP-9; 25 mg BID, 4 Weeks
  MMP 9 Change from baseline, Mean: -104.2 pg/mL
  MMP 9 Change from baseline, Median: -104.8 pg/mL
  MMP 9 Observed Values, Mean: 660.4 pg/mL
  MMP 9 Observed Values, Median: 623.4 pg/mL
MMP-9; 25 mg BID, 8 Weeks
  MMP 9 Change from baseline, Mean: -147.6 pg/mL
  MMP 9 Change from baseline, Median: -85.0 pg/mL
  MMP 9 Observed Values, Mean: 633.5 pg/mL
  MMP 9 Observed Values, Median: 582.1 pg/mL
MMP-9; 25 mg BID, p 0.04
  MMP-9 Change from Baseline at Week 8, LS Mean: −144
MMP-9; 50 mg BID, 4 Weeks
  MMP 9 Change from baseline, Mean: -82.4 pg/mL
  MMP 9 Change from baseline, Median: -63.6 pg/mL
  MMP 9 Observed Values, Mean: 704.1 pg/mL
  MMP 9 Observed Values, Median: 704.2 pg/mL
MMP-9; 50 mg BID, 8 Weeks
  MMP 9 Change from baseline, Mean: -114.0 pg/mL
  MMP 9 Change from baseline, Median: -60.1 pg/mL
  MMP 9 Observed Values, Mean: 682.5 pg/mL
  MMP 9 Observed Values, Median: 655.1 pg/mL
MMP-9; 50 mg BID, p 0.19
  MMP-9 Change from Baseline at Week 8, LS Mean: −104
MMP-9; all CEP-1347 treatment groups relative to placebo, pooled groups vs placebo p=0.06
  MMP-9 change from baseline at week 8 (ANCOVA): greater reduction
IL-8
  sputum IL-8 (ANCOVA): no clear treatment related trends or statistically significant changes
Asthma patients [1]
  daily evening PEFR, CEP-1347 effect in longitudinal model: borderline significant
MLK1
  kinetics of inhibition of MLK kinases, mode of action: competitive with the binding of adenosine triphosphate
[2]; 10 mg BID, p 0.26
  eNO Change from Baseline at Week 8, LS Mean: −4.86
[2]; 25 mg BID, p 0.86
  eNO Change from Baseline at Week 8, LS Mean: −1.88
[2]; 50 mg BID, p 0.58
  eNO Change from Baseline at Week 8, LS Mean: −3.08
[2]; all CEP-1347 treatment groups relative to placebo, none of the changes achieved statistical significance
  eNO change from baseline at week 8 (ANCOVA): greater decrease
IL-1β
  production of IL-1β by cultured cells: inhibit the production
IL-6
  sputum IL-6 (ANCOVA): no clear treatment related trends or statistically significant changes
Asthma patients [3]; 10 mg BID, p 0.30
  PEFR Change from Baseline at Week 8, LS Mean: 0.01
Asthma patients [3]; 25 mg BID, p 1.0
  PEFR Change from Baseline at Week 8, LS Mean: 0.03
Asthma patients [3]; 50 mg BID, p 0.77
  PEFR Change from Baseline at Week 8, LS Mean: 0.04
Asthma patients [3]; 10, 25, 50 mg BID, 56 days, p=0.012
  daily morning PEFR change from baseline, longitudinal mixed effects model with CEP-1347 treatment component vs placebo only model: statistically significant improvement in the description of the data
Asthma patients [3]; Dose 20, BL % pred PEF 70
  Mean model predicted PEFR adjusted for baseline percent predicted PEFR, mean: 19.3
Asthma patients [3]; Dose 20, BL % pred PEF 80
  Mean model predicted PEFR adjusted for baseline percent predicted PEFR, mean: 16.6
Asthma patients [3]; Dose 20, BL % pred PEF 96
  Mean model predicted PEFR adjusted for baseline percent predicted PEFR, mean: 12.2
Asthma patients [3]; Dose 50, BL % pred PEF 70
  Mean model predicted PEFR adjusted for baseline percent predicted PEFR, mean: 38.6
Asthma patients [3]; Dose 50, BL % pred PEF 80
  Mean model predicted PEFR adjusted for baseline percent predicted PEFR, mean: 29.4
Asthma patients [3]; Dose 50, BL % pred PEF 96
  Mean model predicted PEFR adjusted for baseline percent predicted PEFR, mean: 14.8
Asthma patients [3]; Dose 100, BL % pred PEF 70
  Mean model predicted PEFR adjusted for baseline percent predicted PEFR, mean: 99.5
Asthma patients [3]; Dose 100, BL % pred PEF 80
  Mean model predicted PEFR adjusted for baseline percent predicted PEFR, mean: 70.0
Asthma patients [3]; Dose 100, BL % pred PEF 96
  Mean model predicted PEFR adjusted for baseline percent predicted PEFR, mean: 22.9
TNFα
  production of TNFα by mice after LPS challenge: reduces production
